Experimental findings from patent publication US20060093577A1, “Combination anti-viral compositions and methods of use” (priority 2004, published 2006) are described below.

The subject of data set [1] is BVDV. The data set is described as follows: Two-way combination inhibition-of-CPE assay, BVDV-infected MDBK cells, MOI 0.01 (MacSynergy, isobologram). In kind it is cell-based, bovine viral diarrhea virus. The conditions noted are these: for EC50: Bovine viral diarrhea virus isolates and strains, MDBK. Here is the method:
(§1) Each two-way combination was performed twice.
Initially, as was done in Example 1, individual compound potency (EC50) for inhibition of BVDV-induced cytopathic effects in MDBK cells was determined for each combination experiment (see Table 5). Minimal experiment-to-experiment variability in individual drug potency was observed.
A greater positive percent (synergy) volume is indicative of a synergistic effect. Values less than 25 μM/ml^2% or 25 μM(IU)/ml(well)^2% are insignificant; values between 25 and 50 μM/ml^2% or 25 and 50 μM(IU)/ml(well)^2% are considered minor but significant; values between 50 and 100 μM/ml^2% or μM(IU)/ml(well)^2% indicate moderate synergy that may be indicative of a significant synergistic effect in vivo; and values greater than 100 μM/ml^2% or μM(IU)/ml(well)^2% indicate strong synergy that is likely indicative of a significant synergistic effect in vivo.

For data set [2], the system named is BVDV. The data set is described as follows: Two-way combination inhibition-of-CPE assay, BVDV-infected MDBK cells, MOI 0.05 (Example 5). In kind it is cell-based, bovine viral diarrhea virus. To be noted: read-out: EC50 protection of MDBK cells from BVDV-induced cytotoxicity. The procedure:
as §1
Individual potencies (EC50) of each of the drugs for inhibition of BVDV-induced cytopathic effects in MDBK cells were determined for each combination experiment (see Table 9).

Data set [3] deals with BVDV strain NADL. The data set is described as follows: Inhibition of BVDV release from MDBK cells. In kind it is cell-based. To be noted: Bovine viral diarrhea virus isolates and strains, MOI about 0.01, 24 hours. Here is the method: The cell cultures were incubated 3-24 hours to allow attachment of the cells to the tissue culture plates prior to infection and addition of compounds. The appropriate number of plaque forming units (PFU) of BVDV strain NADL (ATCC VR-534) diluted in sterile PBS containing 1% HS were added to each well to achieve the desired multiplicity of infection (MOI) (about 0.01). The cells were exposed to the virus at 37° C., 5% CO2 for 1.5 hours, and then washed with PBS. The test compounds, dissolved in cell growth media with 2% HS, were then added to the cells at varying concentrations. The plates were incubated at 37° C., 5% CO2 for 24 hours (one cycle of BVDV replication). The 96-well plates were then centrifuged at low speed to pellet the cells. The supernatant was serially diluted and used to infect a new monolayer of cells in 12-well plates. The cell monolayer was then overlaid with 0.5% agarose dissolved in cell growth media with 5% HS containing (1) castanospermine (Phytex, Australia); (2) ribavirin (Ribavirin, Sigma); (3) IFN-α2b (PBL Biomedical Laboratories, Piscataway, N.J.); or (4) alone (i.e., no added test compound). The treated cells were incubated for 3 to 5 days at 37° C. under 5% CO2, fixed with formaldehyde, stained with crystal violet or methylene blue, washed in double distilled water, and finally air dried at room temperature. Virus plaques formed were quantified by manual counting, and titer was determined.

For data set [4], the system named is BVDV. The data set is described as follows: Plaque reduction assay. To be noted: Bovine viral diarrhea virus isolates and strains. In kind it is cell-based. Here is the method:
The BVDV virus stock was serially diluted in phosphate buffered saline (PBS) containing 1-5% horse serum (HS). MDBK cells were grown to confluence in culture dishes and were infected at 37° C. with BVDV at various multiplicity of infection (<1 to >0.001). After 1.5 hours of adsorption, the inoculum was removed. The cell monolayer was overlaid with 0.5% agarose dissolved in cell growth media containing 5% HS with and without test compound(s) (castanospermine, ribavirin, or IFN-α). The dishes were incubated for 3 to 5 days at 37° C. under 5% CO2. The monolayer of MDBK cells was fixed with formaldehyde, stained with crystal violet or methylene blue according to standard methods, and then washed in double distilled water. Following washing, the plates air dried at room temperature. The virus plaques formed in the MDBK cell cultures were quantified by manual counting. The inhibitory activities of test compounds were determined by calculating the percent (%) reduction in plaques as follows: % reduction in plaques=[…].
In general terms: Plaques are areas of infected cells; plaque reduction assays count them against a control.

Data set [5] concerns BVDV. The data set is described as follows: Protection of MDBK cells from BVDV-induced cytotoxicity (MTS/PMS CPE reduction). Type of data set: cell-based. The conditions noted are these: Bovine viral diarrhea virus isolates and strains.
Method: Cell proliferation assays were performed using a non-radioactive cell proliferation MTS/PMS assay (MTS: 3-(4,5-dimethylthiazol-2-yl)-5-(3-carboxymethoxy phenyl)-2-(4-sulfophenyl)-2H-tetrazolium (Promega Corporation, Madison, Wis.); PMS: phenazine methosulfate (Sigma Aldrich, St. Louis, Mo.)). MDBK cells were seeded into 96-well plates at a density of approximately 2×10^4 cells per well. The cultures were incubated 3-24 hours to permit attachment of the cells to the plates prior to infection and addition of compounds. The appropriate number of PFU of BVDV were added to each well to achieve the desired MOI (0.1 or 0.01); the cells were exposed to the virus diluted at the appropriate concentration in phosphate buffered saline (PBS) containing 1% horse serum for 1 to 2 hours. The virus inoculum was then removed and the cells were washed with PBS containing 1% HS. The test compounds, castanospermine, ribavirin, and interferon-α were dissolved in cell growth media with 2% HS and added to the cells at varying concentrations, and then incubated at 37° C. in the presence of 5% CO2 for 3-4 days. Uninfected cells and infected, untreated cells (i.e., without compound) were used as additional controls. After the 3-4 days of incubation, a combined MTS/PMS solution was added into each well assay plate containing 100 μL of cells in culture medium to obtain final concentrations of 333 μg/ml MTS and 25 μM PMS. A spectrophotometer plate reader was used to measure the absorbance at 490 nm after incubation of the 96-well plate for 1 to 4 hours at 37° C. in a humidified, 5% CO2 atmosphere. The mean absorbance in each set of triplicate wells was determined. Antiviral activity was measured as MTS conversion relative to the differential between the conversion for cell (non-infected) and viral (non-drug-treated) controls. The cytopathic effect (CPE) reduction for each concentration of the tested compound, which correlated with antiviral activity, was calculated as follows. % CPE reduction=[(D−ND)/(NI−ND)]×100, in which D (drug-treated) is the absorbance of drug-treated cells; ND (non drug-treated) is the absorbance of untreated infected cells; and NI (non-infected) is the absorbance of non-infected cells.
The EC50 represents the concentration of the drug that protects 50% of the cells from BVDV induced cytotoxicity (i.e., 50% CPE reduction). CC50 equals the concentration that affects the viability of 50% of the MDBK cells.
Data set [6] in a line: in vitro. To be noted: bovine. Here is the method: MDBK cells were seeded into 96-well plates at a density of approximately 2×10^4 cells per well. The cultures were incubated 3-24 hours to permit attachment of the cells to the plates prior to infection and addition of compounds. […] The mean absorbance in each set of triplicate wells was determined. Antiviral activity was measured as MTS conversion relative to the differential between the conversion for cell (non-infected) and viral (non-drug-treated) controls.

Data set [7] can be described thus: CC50 in plaque reduction assay table (Example 3). In kind it is cell-based. The conditions noted are these: bovine.
[8] abbreviates: Bovine viral diarrhea virus isolates and strains, MDBK.
Where [9] appears, read: read-out: EC50 (50% CPE reduction), MOI = 0.01.
Where [10] appears, read: read-out: EC50 (50% CPE reduction), MOI = 0.1.
The mark [11] stands for this setting: MOI 0.01, combination experiments, compound alone, read-out: EC50 protection from BVDV-induced cytotoxicity, individual compound.

Interferon-α2b: the “Average Interferon-α2b EC50” value in data set [1] (Castanospermine added 0 μM) is reported as 16 IU/mL; in data set [1] (Castanospermine added 1.2 μM), 18 IU/mL; in data set [1] (Castanospermine added 3.7 μM) it was 13 IU/mL; in data set [1] (Castanospermine added 11 μM), 7 IU/mL; in data set [1] (Castanospermine added 33 μM) it was 1 IU/mL; in data set [1] (Castanospermine added 100 μM), less than 1 IU/mL. Besides, the “EC50 protection from BVDV-induced cytotoxicity, individual compound” value in data set [1] (MOI 0.01, combination experiments, compound alone) is reported as 19 ± 6 IU/mL. The “fold decrease of interferon-α2b EC50” value in data set [1] (at 11 μM of castanospermine) is roughly 2 fold.
Usually EC50 stands for the midpoint of the concentration-response curve. In the case of `NC12CC3CC(CC(C3)C1)C2` [Amantadine, amantadine], in data set [2] (setting [8]), the EC50 was 400 µM.
By EC90 is commonly meant the concentration at which the effect reaches the 90% level. A low value points to an effect from little substance. Consider `O[C@H]1[C@H](O)[C@@H](O)CN2CC[C@H](O)[C@H]12` [Castanospermine, [1S-(1α,6β,7α,8β,8αβ)]-octahydro-1,6,7,8-indoli-zinetetrol], for which the EC50 in data set [3] was 14 ± 8 µM; in data set [2] (setting [8]), greater than 100 µM; in data set [4], 110 ± 82 µM; in data set [5] (setting [9]), 61.5 ± 15.4 µM; in data set [5] (setting [10]), 177 ± 14.5 µM; in data set [1] (Interferon-α2b added 0 IU/mL, read-out: Average Castanospermine EC50) it was 52 µM. The concentration giving a half-maximal response (EC50) was 39 µM in data set [1] (Interferon-α2b added 0.7 IU/mL, read-out: Average Castanospermine EC50); 19 µM in data set [1] (Interferon-α2b added 2.2 IU/mL, read-out: Average Castanospermine EC50); 12 µM in data set [1] (Interferon-α2b added 6.7 IU/mL, read-out: Average Castanospermine EC50); 1 µM in data set [1] (Interferon-α2b added 20 IU/mL, read-out: Average Castanospermine EC50); less than 1 µM in data set [1] (Interferon-α2b added 60 IU/mL, read-out: Average Castanospermine EC50); 59 ± 16 µM in data set [1] (setting [11]). This compound also came in with an EC90 in data set [3] of 83 ± 21 µM. The “dose-dependent reduction in EC50 of castanospermine” value in data set [1] (addition of increasing concentrations of interferon-α2b) is listed as greater than 52 fold. Moreover, the “fold reduction of castanospermine EC50 (isobologram)” value in data set [1] (at 10 IU/mL of interferon-α2b) was greater than 7 fold. In addition, in data set [1] (at 20 IU/mL interferon-α2b), the “fold decrease of castanospermine EC50” value is roughly 50 fold. Further, the CC50 in data set [6] and in data set [7] was greater than 1000 µM each time.
Turning to `CCCCN1C[C@H](O)[C@@H](O)[C@H](O)[C@H]1CO` [NB-DNJ, N-butyl-DNJ], the EC50 in data set [2] (MOI 0.05, individual drug) is greater than 500 µM.
On to `NC(=O)c1ncn([C@@H]2O[C@H](CO)[C@@H](O)[C@H]2O)n1` [Ribavirin, reference compound], for which the EC50 worked out at 2.4 ± 2.2 µM in data set [3]; 9.1 ± 6.3 µM in data set [4]; 4.4 ± 2 µM in data set [5] (setting [9]); 9 ± 1 µM in data set [5] (setting [10]); 4 ± 2 µM in data set [1] (setting [11]). The same compound displayed an EC90 in data set [3] of 4.9 ± 1.9 µM. In data set [1] (at about 10 IU/mL interferon-α2b), the “fold reduction of ribavirin EC50 (isobologram)” value is on record as greater than 6 fold. The CC50 was 57 ± 34 µM in data set [6] and 250 µM in data set [7] (MDBK cells, Table 3, read-out: CC50).
